The values that follow come from patent publication US8853258B2, “C-linked hydroxamic acid derivatives useful as antibacterial agents” (Pfizer Inc., priority 2009, dated 2014).

Structures are written as SMILES. Converted amounts (≈) assume the structure as drawn.

By MIC is commonly meant the lowest concentration that inhibits growth of the organism.

In data set [1] the test system is Escherichia coli EC-1: VOGEL, mouse virulent. Put plainly: MIC determination (CLSI), EC-1. Format: cell-based. As to conditions: Escherichia coli, read-out: EC-1 MIC. Put shortly: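 E. coli Vogel, a mouse-virulent strain (EC-1), was tested. MICs were set by dilution susceptibility testing per CLSI standards M7-A7/M100-S18.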
In data set [2] the target is Pseudomonas aeruginosa LpxC enzyme (Pseudomonas aeruginosa (strain ATCC 15692 / DSM 22644 / CIP 104116 / JCM 14847 / LMG 12228 / 1C / PRS 101 / PAO1), UniProt P47205). Description: IC50 Assay, LpxC Enzyme from P. aeruginosa (PA LpxC Enzyme IC50). Format: biochemical. As to conditions: Table 3; read-out: PA LpxC enzyeme IC^50. Put shortly: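 Reaction run 1 h then stopped with 1N HCl. Conversion measured by RapidFire high-throughput mass spectrometry. IC50 derived from percent conversion relative to a no-enzyme control.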

Data set [3] concerns Acinetobacter baumanii/haemolyticus: Multidrug-resistant clinical isolate (AB-3167). Description: MIC determination (CLSI), AB-3167. Format: cell-based. As to conditions: Acinetobacter baumannii; Table 3; read-out: AB-3167 MIC. Put shortly:
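Multidrug-resistant clinical isolate AB-3167 (A. baumannii/haemolyticus) tested for minimum inhibitory concentration following CLSI dilution susceptibility standards M7-A7 and M100-S18.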

Data set [4] has as its system Pseudomonas aeruginosa UI-18: Wild-type (PA-7). Put plainly: MIC determination (CLSI), PA-7. Format: cell-based. As to conditions: Pseudomonas aeruginosa; Table 3; read-out: PA-7 MIC. In a few lines:
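MIC by dilution method per CLSI M7-A7 and M100-S18 guidelines. Strain: wild-type Pseudomonas aeruginosa UI-18.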

Data set [5] deals with Klebsiella pneumoniae: Ciprofloxacin-resistant isolate, ESBL, clinical isolate (KP-3700). Description: MIC determination (CLSI), KP-3700. Format: cell-based. Put shortly: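 MIC measured by broth dilution according to CLSI M7-A7 and M100-S18 standards. Test organism was a ciprofloxacin-resistant, ESBL-expressing clinical isolate.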

In the case of `Cc1oc(-c2ccccc2F)nc1COc1ccc(CCC(C)(C(=O)NO)S(C)(=O)=O)cc1` (centres unmarked) [Example 251, 4-(4-{[2-(2-fluorophenyl)-5-methyl-1,3-oxazol-4-yl]methoxy}phenyl)-N-hydroxy-2-methyl-2-(methylsulfonyl)butanamide], the MIC in data set [1] was 32 µg/mL (≈ 67.2 µM); in data set [3], not below 64 µg/mL; in data set [4], not below 64 µg/mL. Moreover, the IC50 in data set [2] turned out to be 21.6 nM. Besides, the “KP-3700 MIC” value in data set [5] is reported as “≧64 mg/L”.

`CC(CCc1ccc(OCc2c(F)cccc2F)cc1)(C(=O)NO)S(C)(=O)=O` (centres unmarked) [Example 258, 4-{4-[(2,6-difluorobenzyl)oxy]phenyl}-N-hydroxy-2-methyl-2-(methylsulfonyl)butanamide]: the values for the MIC in data set [1], in data set [3] and in data set [4] were 2 µg/mL (≈ 4.84 µM), 32 µg/mL (≈ 77.4 µM) and 2 µg/mL (≈ 4.84 µM), respectively. Further, the IC50 in data set [2] was 0.599 nM. In addition, the “KP-3700 MIC” value in data set [5] amounted to 16 µg/mL.

In the case of `Cc1ccccc1COc1ccc(CCC(C)(C(=O)NO)S(C)(=O)=O)cc1` (centres unmarked) [Example 260, N-hydroxy-2-methyl-4-{4-[(2-methylbenzyl)oxy]phenyl}-2-(methylsulfonyl)butanamide], the MIC in data set [1] worked out at 16 µg/mL (≈ 40.9 µM); in data set [3] it was 32 µg/mL (≈ 81.7 µM); in data set [4], 8 µg/mL (≈ 20.4 µM). Moreover, in data set [2], the IC50 amounted to 1.45 nM. The “KP-3700 MIC” value in data set [5] is listed as “≧64 mg/L”.

`CC(CCc1ccc(OCC2CCOCC2)cc1)(C(=O)NO)S(C)(=O)=O` (centres unmarked) [Example 261, N-hydroxy-2-methyl-2-(methylsulfonyl)-4-[4-(tetrahydro-2H-pyran-4-ylmethoxy)phenyl]butanamide]: the MIC in data set [1] is not below 64 µg/mL; in data set [3], not below 64 µg/mL; in data set [4], 32 µg/mL (≈ 83 µM). In addition, in data set [2], the IC50 turned out to be 4.93 nM. In addition, the “KP-3700 MIC” value in data set [5] is recorded as “≧64 mg/L”.

`C#CCOc1ccc(CCC(C)(C(=O)NO)S(C)(=O)=O)cc1` (centres unmarked) [Example 265, N-hydroxy-2-methyl-2-(methylsulfonyl)-4-[4-(prop-2-yn-1-yloxy)phenyl)butanamide]: the MIC in data set [1] is not below 64 µg/mL; in data set [3] it was not below 64 µg/mL; in data set [4], 16 µg/mL (≈ 49.2 µM). For the same compound, the IC50 in data set [2] came out at 105 nM. Further, the “KP-3700 MIC” value in data set [5] was “≧64 mg/L”.

In the case of `CC(C)CCc1noc(COc2ccc(CCC(C)(C(=O)NO)S(C)(=O)=O)cc2)n1` (centres unmarked) [Example 272, N-hydroxy-2-methyl-4-(4-{[3-(3-methylbutyl)-1,2,4-oxadiazol-5-yl]methoxy}phenyl)-2-(methylsulfonyl)butanamide], the MIC was 32 µg/mL (≈ 72.8 µM) in data set [1], not below 64 µg/mL in data set [3] and not below 64 µg/mL in data set [4]. The IC50 in data set [2] worked out at 1.54 nM. Also, the “KP-3700 MIC” value in data set [5] was “≧64 mg/L”.

Take `Cc1cccc(-c2nc(COc3ccc(CCC(C)(C(=O)NO)S(C)(=O)=O)cc3)c(C)o2)c1` (centres unmarked) [Example 278, N-hydroxy-2-methyl-4-(4-{[5-methyl-2-(3-methylphenyl)-1,3-oxazol-4-yl]methoxy}phenyl)-2-(methylsulfonyl)butanamide]: the MIC in data set [1] was 32 µg/mL (≈ 67.7 µM); in data set [3], not below 64 µg/mL; in data set [4], not below 64 µg/mL. Also, the IC50 in data set [2] was determined as 10.4 nM. For the same compound, in data set [5], the “KP-3700 MIC” value is “≧64 mg/L”.

For the compound `CC(CCc1ccc(OCc2cc(F)ccc2C(F)(F)F)cc1)(C(=O)NO)S(C)(=O)=O` (centres unmarked) [Example 280, 4-(4-{[5-fluoro-2-(trifluoromethyl)benzyl]oxy}phenyl)-N-hydroxy-2-methyl-2-(methylsulfonyl)butanamide], the MIC in data set [1] worked out at 8 µg/mL (≈ 17.3 µM); in data set [3] it was 32 µg/mL (≈ 69 µM); in data set [4], 32 µg/mL (≈ 69 µM). For the same compound, in data set [2], the IC50 was 13.8 nM. Besides, the “KP-3700 MIC” value in data set [5] is 32 µg/mL.

As to `CC(CCc1ccc(OCCC2CCOCC2)cc1)(C(=O)NO)S(C)(=O)=O` (centres unmarked) [Example 281, N-hydroxy-2-methyl-2-(methylsulfonyl)-4-{4-[2-(tetrahydro-2H-pyran-4-yl)ethoxy]phenyl}butanamide], the results for the MIC in data set [1], in data set [3] and in data set [4] were not below 64 µg/mL, not below 64 µg/mL and 32 µg/mL (≈ 80.1 µM), respectively. Moreover, in data set [2], the IC50 was determined as 6.77 nM. Further, the “KP-3700 MIC” value in data set [5] is “≧64 mg/L”.

Take `CC(Oc1ccc(CCC(C)(C(=O)NO)S(C)(=O)=O)cc1)c1ccccc1` (centres unmarked) [Example 282, N-hydroxy-2-methyl-2-(methylsulfonyl)-4-[4-(1-phenylethoxy)phenyl]butanamide]: the MIC in data set [1] is 8 µg/mL (≈ 20.4 µM); in data set [3] it was 32 µg/mL (≈ 81.7 µM); in data set [4], not below 64 µg/mL. For the same compound, the IC50 in data set [2] amounted to 9.55 nM. Moreover, in data set [5], the “KP-3700 MIC” value is “≧64 mg/L”.

Take `Cc1ccc(Cc2noc(COc3ccc(CCC(C)(C(=O)NO)S(C)(=O)=O)cc3)n2)cc1` (centres unmarked) [Example 283, N-hydroxy-2-methyl-4-(4-{[3-(4-methylbenzyl)-1,2,4-oxadiazol-5-yl]methoxy}phenyl)-2-(methylsulfonyl)butanamide]: the MIC was 16 µg/mL (≈ 33.8 µM) in data set [1], not below 64 µg/mL in data set [3] and not below 64 µg/mL in data set [4]. For the same compound, the IC50 in data set [2] came to 6.32 nM. Also, the “KP-3700 MIC” value in data set [5] is listed as “≧64 mg/L”.

Turning to `CC(CCc1ccc(OCc2ccc(F)cc2C#N)cc1)(C(=O)NO)S(C)(=O)=O` (centres unmarked) [Example 284, 4-{4-[(2-cyano-4-fluorobenzyl)oxy]phenyl}-N-hydroxy-2-methyl-2-(methylsulfonyl)butanamide], the values for the MIC in data set [1], in data set [3] and in data set [4] were 32 µg/mL (≈ 76.1 µM), not below 64 µg/mL and not below 64 µg/mL, respectively. Besides, the IC50 in data set [2] was determined as 5.36 nM. For the same compound, the “KP-3700 MIC” value in data set [5] is given as “≧64 mg/L”.

Turning to `CC(CCc1ccc(OCc2ccccc2C#N)cc1)(C(=O)NO)S(C)(=O)=O` (centres unmarked) [Example 285, 4-{4-[(2-cyanobenzyl)oxy]phenyl}-N-hydroxy-2-methyl-2-(methylsulfonyl)butanamide], the MIC was 32 µg/mL (≈ 79.5 µM) in data set [1], not below 64 µg/mL in data set [3] and 32 µg/mL (≈ 79.5 µM) in data set [4]. Also, in data set [2], the IC50 was found to be 10 nM. Further, in data set [5], the “KP-3700 MIC” value is on record as “≧64 mg/L”.

For `Cc1ccc(OCc2noc(COc3ccc(CCC(C)(C(=O)NO)S(C)(=O)=O)cc3)n2)cc1` (centres unmarked) [Example 286, N-hydroxy-2-methyl-4-[4-({3-[(4-methylphenoxy)methyl]-1,2,4-oxadiazol-5-yl}methoxy)phenyl]-2-(methylsulfonyl)butanamide], the results for the MIC in data set [1], in data set [3] and in data set [4] were 32 µg/mL (≈ 65.4 µM), not below 64 µg/mL and not below 64 µg/mL, respectively. In data set [2], the IC50 amounted to 11.9 nM. In addition, the “KP-3700 MIC” value in data set [5] is “≧64 mg/L”.

With `Cc1cccnc1COc1ccc(CCC(C)(C(=O)NO)S(C)(=O)=O)cc1` (centres unmarked) [Example 287, N-hydroxy-2-methyl-4-{4-[(3-methylpyridin-2-yl)methoxy]phenyl}-2-(methylsulfonyl)butanamide], the minimum inhibitory concentration (MIC) is not below 64 µg/mL in data set [1], not below 64 µg/mL in data set [3] and 16 µg/mL (≈ 40.8 µM) in data set [4]. For the same compound, the IC50 in data set [2] is 3.14 nM. Besides, in data set [5], the “KP-3700 MIC” value is reported as “≧64 mg/L”.

For the compound `CC(CCc1ccc(OCc2ccc(OC(F)(F)F)cc2)cc1)(C(=O)NO)S(C)(=O)=O` (centres unmarked) [Example 288, N-hydroxy-2-methyl-2-(methylsulfonyl)-4-(4-{[4-(trifluoromethoxy)benzyl]oxy}phenyl)butanamide], the figures for the MIC in data set [1], in data set [3] and in data set [4] were 4 µg/mL (≈ 8.67 µM), 4 µg/mL (≈ 8.67 µM) and 8 µg/mL (≈ 17.3 µM), respectively. In addition, the IC50 in data set [2] was 1.53 nM. Further, in data set [5], the “KP-3700 MIC” value came out at 8 µg/mL.
